9 compounds from US20240336573A1, “COMPOUND FOR THE TREATMENT AND PROPHYLAXIS OF INFECTIOUS DISEASES” (Eberhard Karls Universität Tübingen Medizinische Fakultät, priority 2021, published 2024) can be followed below.

In assay [1] the test system is E. coli BW25113, E. coli JW2496-3, E. coli ATCC 25922. Put plainly: Minimal inhibitory concentration assay (bactericidal/bacteriostatic assessment). In kind it is cell-based. As to conditions: dilution series 100-1.7 μM. An excerpt: The intended effect of a SurA inhibitor should be the induction of a disturbance of the outer membrane composition resulting in an increased susceptibility to antibiotic treatment. Of note, Vancomycin is typically not used to treat infections with Gram-negative bacteria, because it is excluded by the OM and not efficient at concentrations that could be achieved in patients. However, at appropriate dosing in vitro it can be used to detect outer membrane defects. For determining a potential sensitizing effect of Vancomycin treatment, the inventors first tested whether the compounds at hand were bactericidal per se. Therefore, the inventors performed a minimal inhibitory concentration (MIC) assay. To this end, 5 ml overnight cultures of E. coli BW25113 (Keio-Collection reference strain), E. coli JW2496-3 (Keio-Collection single gene knockout for bamB, which suffers from decreased outer membrane integrity) and E. coli ATCC 25922 (a reference strain recommended for antibiotic susceptibility testing) were grown in Mueller Hinton Broth, Cation adjusted (MHB-II). The next day, the OD was adjusted to obtain 1*10^8 CFU/ml using fresh MHB-II. Next, this bacterial solution was diluted 1:100 into 20 ml fresh MHB-II. 50 μl of this bacteria solution were then transferred into each well of a 96-well plate prefilled with 50 μl MHB-II supplemented with the desired compounds. The test plates for the bactericidal assessment contained dilution series of the compounds from 100-1.7 μM. Plates were sealed with a gas permeable membrane and incubated o/n at 37° C. in a humid chamber without shaking. After o/n incubation, bacterial growth was quantified by measuring the optical density at 600 nm wavelength in a multiplate reader. Compounds showing no growth inhibition at 100 μM were considered non-bactericidal. Of note, the bactericidal effect of Vancomycin was assessed similarly for each test strain using Vancomycin concentrations ranging from […]. This was done to identify a Vancomycin concentration at which the strains just managed to survive.

Assay [2] concerns the target SurA (Escherichia coli, UniProt P0ABZ6). In words: Luciferase-based SurA activity assay (primary assay, in-house). The format is biochemical, E. coli. As to conditions: n/d: no signal detected; for Primary Assay ICmax: QHL-10 derivatives, dose response up to 125 μM; for Primary Assay Amplitude: amplitude of signal. From the text:
The biological function of SurA is to bind and to keep outer membrane proteins that have reached the periplasm in an unfolded but folding-competent state. The inventors' assay is based on this interaction and uses firefly Luciferase (fLuc) as a non-native substrate. […] This is exploited in the assay (FIG. 3). The loss of tertiary structure of fLuc leads to the exposure of binding sites for SurA. It is known that SurA binds selectively to a special group of substrates. These substrates have in common the specific patterns of hydrophobic amino acids that are highly enriched in the beta strands of integral outer membrane proteins. These motifs are present in OMPs of all Gram-negative bacteria and in fLuc as well. Upon mild heat treatment of fLuc and its subsequent partial unfolding, fLuc is accepted as a substrate by SurA. Of note, these intermediates served as reporter substrates to determine the activity of a […] folding chaperone. […] This interaction remains stable upon temperature reduction. Next, the temperature of the assay is reduced to room temperature and luciferase activity is subsequently measured by addition of Luciferin and ATP. In conditions without SurA, fLuc will refold into its active conformation resulting in a luminescence signal.
In short, the Luciferase based SurA activity assay was performed in SurA Activity Assay Buffer (40 mM HEPES pH 7.4, 20 mM MgSO4, 0.5 g/I BSA). SurA aliquots were thawn at RT, activated by mild heat treatment and cooled down to RT for 10 min. […] Solution A containing 10 mM ATP as well as 0.3 mM Luciferin (Promega Beetle Luciferin, Potassium Salt) in water was prepared. Luciferase working solution was prepared by diluting 1 ml Luciferase working stock (100 nM) with 9 ml assay buffer. 33 μl of the protein solution were added to every 2nd row of a well of a 384-well PS, white, flat bottom plate. […] Subsequently, 2 μl of compound in DMSO were added in quadruplicates (4 wells each of protein solution and buffer controls). These compound solutions could contain either various compounds or different dilutions of the same compound allowing screening inhibitor activity in a dose dependent manner. After compound addition, plates were incubated 15 min at RT. After this incubation, 5 μl of Luciferase working solution were added to each well. Next, the plates were incubated 25 min at 38° C. to partially unfold the Luciferase. Subsequently, the assay plate was cooled for 5 min at 4° C. followed by 10 min incubation at RT prior to luminescence measurement. Luminescence was measured in a TECAN infinite M200 pro plate reader for each well individually after injection of 10 μl Solution A.

Assay [3] deals with E. coli JW2496-3. In words: Sensitizer MIC assay (vancomycin). The conditions noted are these: 100 μM compound, more susceptible strain. In kind it is cell-based. On the procedure:
(§1) To test for the sensitizer properties of the compounds, the inventors then performed a sensitizer MIC assay. To this end, E. coli BW25113, E. coli JW2496-3, and E. coli ATCC 25922 inocula were prepared as described above. Each well of a 96-well plate was prefilled with a fixed compound concentration of 100 μM and a dilution series of Vancomycin ranging from […]. A sensitizing effect was defined as reduction of the MIC value of Vancomycin of the respective test strain.

Assay [4] deals with E. coli BW25113. In words: Sensitizer MIC assay (vancomycin). The format is cell-based. The conditions noted are these: 100 μM compound, wildtype strain. The procedure:
as §1

The subject of assay [5] is E. coli ATCC 25922. In words: Sensitizer MIC assay (vancomycin). In kind it is cell-based. The conditions noted are these: vancomycin; 100 μM compound; type strain. On the procedure:
as §1

Sequence of SurA (P0ABZ6 21-428): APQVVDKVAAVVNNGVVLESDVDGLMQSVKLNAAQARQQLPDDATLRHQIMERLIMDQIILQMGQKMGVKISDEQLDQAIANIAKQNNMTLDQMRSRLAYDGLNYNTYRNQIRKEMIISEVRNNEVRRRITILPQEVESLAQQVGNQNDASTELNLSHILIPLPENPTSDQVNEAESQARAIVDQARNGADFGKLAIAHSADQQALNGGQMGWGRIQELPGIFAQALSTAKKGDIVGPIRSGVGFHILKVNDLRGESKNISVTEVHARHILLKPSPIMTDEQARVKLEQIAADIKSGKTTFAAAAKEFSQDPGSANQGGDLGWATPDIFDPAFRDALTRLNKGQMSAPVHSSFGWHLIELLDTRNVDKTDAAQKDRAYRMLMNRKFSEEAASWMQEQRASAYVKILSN

`NC(=O)c1nc(-c2cccc(N)c2)[nH]c1NC(=O)Cc1cccc2ccccc12` [Compound 3i, 2-(3-aminophenyl)-5-(2-(naphthalen-1-yl)acetamido)-1H-imidazole-4-carboxamide]: the “Bacteriostatic MIC Assay Result” value in assay [1] is recorded as “non-bacteriostatic”.
`COc1ccc(Cc2nc(C(N)=O)c(NC(=O)c3ccc(-c4ccccc4)cc3)[nH]2)cc1` [Compound 1f, 5-([1,1′-biphenyl]-4-carboxamido)-2-(4-methoxybenzyl)-1H-imidazole-4-carboxamide]: in assay [2], the “Primary Assay ICmax” value turned out to be 16 µM and the “Primary Assay Amplitude” value is reported as “high”. Moreover, the “Bacteriostatic MIC Assay Result” value in assay [1] is on record as “slightly”.
For the compound `NC(=O)c1nc(Cc2ccc(O)cc2)[nH]c1NC(=O)c1ccc(-c2ccccc2)cc1` [Compound 2d, 5-([1,1′-biphenyl]-4-carboxamido)-2-(4-hydroxybenzyl)-1H-imidazole-4-carboxamide], in assay [2], the “Primary Assay ICmax” value is 16 µM and the “Primary Assay Amplitude” value is “high”. Besides, the “Bacteriostatic MIC Assay Result” value in assay [1] is on record as “non-bacteriostatic”.
Regarding `CCOc1ccc2ccccc2c1C(=O)Nc1[nH]c(-c2cccc(N)c2)nc1C(N)=O` [Compound 3e, 2-(3-aminophenyl)-5-(2-ethoxy-1-naphthamido)-1H-imidazole-4-carboxamide], in assay [2], the “Primary Assay ICmax” value was determined as 64 µM and the “Primary Assay Amplitude” value is “low”. In addition, in assay [1], the “Bacteriostatic MIC Assay Result” value is reported as “non-bacteriostatic”. Moreover, the “Sensitizer MIC Assay (log2-fold reduction of MIC in presence of compound) JW2496-3” value in assay [3] stood at 0 log2-fold. Further, in assay [4], the “Sensitizer MIC Assay (log2-fold reduction of MIC in presence of compound) BW25113” value stood at 0 log2-fold. Moreover, in assay [5], the “Sensitizer MIC Assay (log2-fold reduction of MIC in presence of compound) ATCC25922” value was determined as 0 log2-fold.
On to `NC(=O)c1nc(Cc2ccc(OCC(=O)O)cc2)[nH]c1NC(=O)c1ccccc1-c1ccccc1` [Compound 2c, 2-(4-((5-([1,1′-biphenyl]-2-carboxamido)-4-carbamoyl-1H-imidazol-2-yl)methyl)phenoxy)acetic acid], for which, in assay [1], the “Bacteriostatic MIC Assay Result” value is reported as “non-bacteriostatic”. Moreover, in assay [3], the “Sensitizer MIC Assay (log2-fold reduction of MIC in presence of compound) JW2496-3” value came out at 0 log2-fold. Further, in assay [4], the “Sensitizer MIC Assay (log2-fold reduction of MIC in presence of compound) BW25113” value turned out to be 0 log2-fold. Moreover, the “Sensitizer MIC Assay (log2-fold reduction of MIC in presence of compound) ATCC25922” value in assay [5] is given as 0 log2-fold.
`CCOC(=O)COc1ccc(Cc2nc(C(N)=O)c(NC(=O)c3cccc(-c4ccccc4)c3)[nH]2)cc1` [Compound 1b, Ethyl 2-(4-((5-([1,1′-biphenyl]-3-carboxamido)-4-carbamoyl-1H-imidazol-2-yl)methyl)phenoxy)acetate]: in assay [1], the “Bacteriostatic MIC Assay Result” value is reported as “non-bacteriostatic”.
Turning to `NC(=O)c1nc(-c2ccccc2O)[nH]c1NC(=O)Cc1cccc2ccccc12` [Compound 3j, 2-(2-hydroxyphenyl)-5-(2-(naphthalen-1-yl)acetamido)-1H-imidazole-4-carboxamide], the “Bacteriostatic MIC Assay Result” value in assay [1] is given as “non-bacteriostatic”. Further, in assay [3], the “Sensitizer MIC Assay (log2-fold reduction of MIC in presence of compound) JW2496-3” value is 1-4 log2-fold. Besides, in assay [4], the “Sensitizer MIC Assay (log2-fold reduction of MIC in presence of compound) BW25113” value is on record as 0 log2-fold. Besides, the “Sensitizer MIC Assay (log2-fold reduction of MIC in presence of compound) ATCC25922” value in assay [5] came to 1 log2-fold.
In the case of `NC(=O)c1nc(-c2cc(F)c(F)c(F)c2)[nH]c1NC(=O)c1ccccc1OCc1ccccc1` [Compound 3p, 5-(2-(benzyloxy)benzamido)-2-(3,4,5-trifluorophenyl)-1H-imidazole-4-carboxamide], in assay [1], the “Bacteriostatic MIC Assay Result” value was “slightly”.
With `NC(=O)c1nc(-c2ccc(F)c(N)c2)[nH]c1NC(=O)Cc1cccc2ccccc12` [Compound 3k, 2-(3-amino-4-fluorophenyl)-5-(2-(naphthalen-1-yl)acetamido)-1H-imidazole-4-carboxamide], the “Bacteriostatic MIC Assay Result” value in assay [1] is reported as “non-bacteriostatic”. Further, the “Sensitizer MIC Assay (log2-fold reduction of MIC in presence of compound) JW2496-3” value in assay [3] is recorded as 0 log2-fold. For the same compound, the “Sensitizer MIC Assay (log2-fold reduction of MIC in presence of compound) BW25113” value in assay [4] is given as 0 log2-fold. The “Sensitizer MIC Assay (log2-fold reduction of MIC in presence of compound) ATCC25922” value in assay [5] was 0 log2-fold.
